Measurements reported in paper PMC11237774, “On-target, dual aminopeptidase inhibition provides cross-species antimalarial activity” (mBio, 2024).
Where two headings read alike, the source gives them in different places.

Experiments:
PfA-M1 = molecular target: T1, PfA-M1 (Plasmodium falciparum, UniProt O96935); test: Recombinant aminopeptidase fluorescence assay (H-Leu-NHMec); format: biochemical, P. falciparum
T1 construct: made in house
Description: (§1) Inhibition of aminopeptidase activity assays were performed against nine aminopeptidases: the M1 alanyl and M17 leucyl aminopeptidases from P. falciparum (PfA-M1; PfA-M17), P. vivax (Pv-M1; Pv-M17), and P. berghei (Pb-M1; Pb-M17), and three human M1 homologs: LTA4H (OriGene TP307617), ERAP1 (OriGene TP314469), and ERAP2 (Creative BioMart ERAP2-304H). The Plasmodium enzymes were produced recombinantly as described previously ([16], [17]), and the human recombinant enzymes were purchased from commercial suppliers as indicated.
(§2) The concentration of H-Leu-NHMec in the assay was held constant for each enzyme and ranged from 10 to 100 µM, depending on the enzyme. Reactions were measured at 37°C in white 384-well plates in a total volume of 25 or 50 µL using a spectrofluorimeter (BMG FLUOstar) with excitation at 355 nm and emission at 460 nm. The fluorescence signal was continuously monitored until a final steady-state velocity, v, was obtained. Inhibition constants were calculated from biological triplicates made from three different protein preparations.
(§3) Substrate concentrations were selected to allow sensitive detection of enzyme activity while not exceeding the Km for each enzyme. A compound concentration range was selected to obtain a complete inhibition curve (0%–100 %) in biological triplicate. Where possible, the Ki values were calculated by plotting the initial rates versus inhibitor concentration and fitting to the Morrison equation for tight-binding inhibitors in GraphPad Prism (V.8.4.1; non-linear regression method).

Pv-M1 = Pv-M1 (Plasmodium vivax, UniProt A5JZA9); test: as above; format: biochemical, P. vivax
Description: as §1, §2, §3

ERAP1 = molecular target: T2, ERAP1 (Homo sapiens, UniProt Q9NZ08); test: as above; format: biochemical; conditions: for inhibition at 1.25 µM: ERAP1, 1.25 µM compound; for inhibition at 10 µM: ERAP1, 10 µM compound; for inhibition at 500 µM: ERAP1, 500 µM compound; for inhibition at 1000 µM: ERAP1, 1000 µM compound
T2 construct: purchased OriGene TP314469
Description: as §1, §2, §3

ERAP2 = molecular target: T3, ERAP2 (Homo sapiens, UniProt Q6P179); test: as above; format: biochemical; conditions: for inhibition at 1.25 µM: ERAP2, 1.25 µM compound; for inhibition at 10 µM: ERAP2, 10 µM compound; for inhibition at 500 µM: ERAP2, 500 µM compound; for inhibition at 1000 µM: ERAP2, 1000 µM compound
T3 construct: purchased Creative BioMart ERAP2-304H
Description: as §1, §2, §3

Pb-M1 = Pb-M1 (Plasmodium berghei, UniProt A0A509ATR4); test: as above; format: biochemical
Description: as §1, §2, §3

[1] = test system: PfNF54-s16-GFP early (I–III) stage gametocytes; test: Image-based gametocyte viability assay; format: cell-based, P. falciparum; conditions: Plasmodium falciparum; stages I–III, 72 h; read-out: IC50 Early-stage Gametocytes (mean ± SD)
Description: (§4) Viability assays were performed as described previously ([32], [33]) against PfNF54-s16-GFP early(I–III), late (IV–V), and mature (V) stage gametocytes. Gametocytes were assessed at the appropriate time points following gametogenesis; early stage (day 2), late stage (day 8), and mature stage (day 12). Compounds diluted in 4% DMSO were transferred into 384-well imaging plates; gametocytes prepared as described previously (35) were added, and plates were incubated for 72 h in 5% CO2, 5% O2, and 60% humidity at 37°C. After 72 h incubation, 5 µL of MitoTracker Red CMH2XRos in phosphate buffered saline (PBS) was added per well, and plates were incubated overnight. Image acquisition and analysis were undertaken on the Opera QEHS micro-plate confocal imaging system. An Acapella-based script using the CMH2XRos fluorescent signal and the GFP-designated object quantifying viable stage-dependent parasite morphology identified gametocytes. Gametocyte viability was calculated as a percentage of the positive (5 µM puromycin) and negative (0.4% DMSO) controls. IC50 values were calculated using a 4-parameter log dose, non-linear regression analysis, with sigmoidal dose response (variable slope) curve fit using GraphPad Prism (ver 4.0). No constraints were used in the curve fit. Chloroquine, artesunate, pyronaridine, pyrimethamine, dihydroartemisinin (DHA), and methylene blue were used as control compounds. Experiments were performed as two or three biological replicates in duplicate.

[2] = test system: PfNF54-s16-GFP late (IV–V) stage gametocytes; test: Image-based gametocyte viability assay; format: cell-based, P. falciparum; conditions: Plasmodium falciparum; stages IV–V, 72 h; read-out: IC50 Late-stage Gametocytes (mean ± SD)
Description: as §4, with “Chloroquine, artesunate, pyronaridine, pyrimethamine, dihydroartemisinin (DHA), and methylene blue were used as control compounds.” left out

[3] = test system: PfNF54-s16-GFP mature (V) stage gametocytes; test: Image-based gametocyte viability assay; format: cell-based, P. falciparum; conditions: Plasmodium falciparum, 72 h, read-out: IC50 Mature-stage Gametocytes (mean ± SD)
Description: as §4, with “Chloroquine, artesunate, pyronaridine, pyrimethamine, dihydroartemisinin (DHA), and methylene blue were used as control compounds.” left out

[4] = read-out: Inhibition of aminopeptidase activity

Pv-M1, sequence (A5JZA9 entry or part of it): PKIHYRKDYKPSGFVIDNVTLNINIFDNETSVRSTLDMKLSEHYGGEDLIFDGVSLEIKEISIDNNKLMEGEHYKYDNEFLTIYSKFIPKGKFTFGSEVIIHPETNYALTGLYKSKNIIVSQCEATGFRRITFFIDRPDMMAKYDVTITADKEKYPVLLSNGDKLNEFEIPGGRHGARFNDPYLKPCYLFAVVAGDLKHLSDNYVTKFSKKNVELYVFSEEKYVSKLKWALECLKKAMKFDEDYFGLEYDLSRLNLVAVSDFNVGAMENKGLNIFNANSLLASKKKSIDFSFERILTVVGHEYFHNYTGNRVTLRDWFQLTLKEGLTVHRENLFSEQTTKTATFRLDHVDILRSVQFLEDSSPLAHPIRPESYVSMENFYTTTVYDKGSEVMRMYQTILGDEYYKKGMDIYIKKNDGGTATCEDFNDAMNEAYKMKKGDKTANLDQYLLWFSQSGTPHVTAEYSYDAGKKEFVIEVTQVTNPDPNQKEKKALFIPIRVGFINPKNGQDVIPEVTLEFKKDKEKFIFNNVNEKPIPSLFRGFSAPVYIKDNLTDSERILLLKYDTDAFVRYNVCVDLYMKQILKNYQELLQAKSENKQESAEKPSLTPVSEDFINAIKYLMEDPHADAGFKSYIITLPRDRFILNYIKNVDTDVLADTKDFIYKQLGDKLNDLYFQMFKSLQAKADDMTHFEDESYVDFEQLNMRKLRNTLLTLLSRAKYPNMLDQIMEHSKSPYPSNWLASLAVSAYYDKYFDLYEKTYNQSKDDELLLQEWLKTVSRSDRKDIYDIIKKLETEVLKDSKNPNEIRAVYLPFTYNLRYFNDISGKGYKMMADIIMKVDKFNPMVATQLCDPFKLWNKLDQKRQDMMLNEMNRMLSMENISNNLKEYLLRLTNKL
T3 sequence (Q6P179 whole entry): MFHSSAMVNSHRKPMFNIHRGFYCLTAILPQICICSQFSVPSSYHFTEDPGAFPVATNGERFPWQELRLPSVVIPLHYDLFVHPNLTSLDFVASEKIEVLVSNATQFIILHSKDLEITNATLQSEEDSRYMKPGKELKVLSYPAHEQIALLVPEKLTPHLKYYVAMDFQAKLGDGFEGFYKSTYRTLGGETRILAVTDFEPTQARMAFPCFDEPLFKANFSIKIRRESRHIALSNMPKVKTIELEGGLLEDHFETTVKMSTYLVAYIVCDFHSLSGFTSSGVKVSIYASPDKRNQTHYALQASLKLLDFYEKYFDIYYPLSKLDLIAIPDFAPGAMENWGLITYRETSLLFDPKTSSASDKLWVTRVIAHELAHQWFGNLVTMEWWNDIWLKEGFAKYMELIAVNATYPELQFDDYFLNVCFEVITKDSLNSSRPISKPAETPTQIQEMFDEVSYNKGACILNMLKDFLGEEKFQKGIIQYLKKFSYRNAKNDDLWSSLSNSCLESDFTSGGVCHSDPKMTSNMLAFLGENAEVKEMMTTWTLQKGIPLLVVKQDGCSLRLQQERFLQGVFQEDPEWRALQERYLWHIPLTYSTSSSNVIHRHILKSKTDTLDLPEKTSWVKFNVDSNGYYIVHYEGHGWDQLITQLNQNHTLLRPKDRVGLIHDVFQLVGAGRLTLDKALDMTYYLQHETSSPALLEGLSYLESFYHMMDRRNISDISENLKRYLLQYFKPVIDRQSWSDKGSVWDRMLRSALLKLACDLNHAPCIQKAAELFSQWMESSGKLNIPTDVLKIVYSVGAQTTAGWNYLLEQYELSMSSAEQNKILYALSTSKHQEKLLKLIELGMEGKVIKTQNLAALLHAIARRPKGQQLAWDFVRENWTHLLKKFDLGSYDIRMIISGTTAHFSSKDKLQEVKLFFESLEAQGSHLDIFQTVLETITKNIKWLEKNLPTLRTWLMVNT
T2 sequence (Q9NZ08 whole entry): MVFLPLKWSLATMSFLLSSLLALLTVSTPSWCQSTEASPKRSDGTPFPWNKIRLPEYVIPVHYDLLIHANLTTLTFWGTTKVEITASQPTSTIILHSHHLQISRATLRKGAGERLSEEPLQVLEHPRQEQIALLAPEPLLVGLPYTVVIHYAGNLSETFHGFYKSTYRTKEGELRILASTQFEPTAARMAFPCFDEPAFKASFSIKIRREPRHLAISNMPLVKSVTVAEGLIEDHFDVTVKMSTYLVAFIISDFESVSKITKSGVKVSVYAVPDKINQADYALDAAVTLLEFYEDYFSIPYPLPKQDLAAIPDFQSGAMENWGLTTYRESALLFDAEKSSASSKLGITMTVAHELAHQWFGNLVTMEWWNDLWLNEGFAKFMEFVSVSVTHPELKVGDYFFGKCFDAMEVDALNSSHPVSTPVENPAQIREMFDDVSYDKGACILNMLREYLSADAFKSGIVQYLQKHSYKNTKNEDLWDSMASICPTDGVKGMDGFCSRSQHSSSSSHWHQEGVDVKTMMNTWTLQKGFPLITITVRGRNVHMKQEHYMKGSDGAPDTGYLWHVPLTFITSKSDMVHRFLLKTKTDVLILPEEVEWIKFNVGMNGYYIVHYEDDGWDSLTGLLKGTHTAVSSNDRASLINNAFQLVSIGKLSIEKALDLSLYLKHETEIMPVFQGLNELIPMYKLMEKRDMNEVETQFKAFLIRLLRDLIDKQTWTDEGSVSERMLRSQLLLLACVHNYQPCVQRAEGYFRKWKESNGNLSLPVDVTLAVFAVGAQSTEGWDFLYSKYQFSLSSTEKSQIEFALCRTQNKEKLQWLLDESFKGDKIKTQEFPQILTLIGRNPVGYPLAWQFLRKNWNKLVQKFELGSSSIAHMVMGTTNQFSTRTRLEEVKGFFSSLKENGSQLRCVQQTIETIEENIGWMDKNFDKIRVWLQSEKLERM
Pb-M1, sequence (A0A509ATR4 entry or part of it): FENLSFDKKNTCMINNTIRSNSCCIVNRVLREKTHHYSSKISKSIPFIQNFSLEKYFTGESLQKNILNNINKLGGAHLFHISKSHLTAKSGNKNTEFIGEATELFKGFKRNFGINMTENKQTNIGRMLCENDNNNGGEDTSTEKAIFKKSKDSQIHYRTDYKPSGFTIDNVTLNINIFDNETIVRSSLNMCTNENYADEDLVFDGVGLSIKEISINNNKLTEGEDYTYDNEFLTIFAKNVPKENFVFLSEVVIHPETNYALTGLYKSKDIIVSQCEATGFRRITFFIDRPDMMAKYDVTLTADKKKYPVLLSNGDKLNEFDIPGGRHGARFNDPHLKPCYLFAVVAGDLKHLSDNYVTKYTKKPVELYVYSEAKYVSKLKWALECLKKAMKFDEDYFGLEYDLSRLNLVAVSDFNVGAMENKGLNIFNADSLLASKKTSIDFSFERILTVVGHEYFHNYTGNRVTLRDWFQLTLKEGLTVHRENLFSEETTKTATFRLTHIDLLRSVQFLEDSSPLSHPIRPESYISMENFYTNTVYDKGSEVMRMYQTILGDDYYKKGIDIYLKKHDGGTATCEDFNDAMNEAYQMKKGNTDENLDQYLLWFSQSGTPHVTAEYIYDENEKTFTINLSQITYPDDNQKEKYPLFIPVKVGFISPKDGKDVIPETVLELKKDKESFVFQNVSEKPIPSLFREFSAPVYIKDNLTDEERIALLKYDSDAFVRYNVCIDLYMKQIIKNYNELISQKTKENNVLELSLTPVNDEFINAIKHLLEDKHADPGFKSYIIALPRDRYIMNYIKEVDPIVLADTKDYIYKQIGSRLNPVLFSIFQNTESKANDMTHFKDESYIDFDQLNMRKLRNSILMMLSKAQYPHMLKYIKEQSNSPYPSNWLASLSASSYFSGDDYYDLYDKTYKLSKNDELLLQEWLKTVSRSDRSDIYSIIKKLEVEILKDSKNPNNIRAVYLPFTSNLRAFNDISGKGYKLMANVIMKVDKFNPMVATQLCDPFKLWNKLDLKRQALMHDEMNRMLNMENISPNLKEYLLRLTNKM
T1 sequence (O96935 whole entry): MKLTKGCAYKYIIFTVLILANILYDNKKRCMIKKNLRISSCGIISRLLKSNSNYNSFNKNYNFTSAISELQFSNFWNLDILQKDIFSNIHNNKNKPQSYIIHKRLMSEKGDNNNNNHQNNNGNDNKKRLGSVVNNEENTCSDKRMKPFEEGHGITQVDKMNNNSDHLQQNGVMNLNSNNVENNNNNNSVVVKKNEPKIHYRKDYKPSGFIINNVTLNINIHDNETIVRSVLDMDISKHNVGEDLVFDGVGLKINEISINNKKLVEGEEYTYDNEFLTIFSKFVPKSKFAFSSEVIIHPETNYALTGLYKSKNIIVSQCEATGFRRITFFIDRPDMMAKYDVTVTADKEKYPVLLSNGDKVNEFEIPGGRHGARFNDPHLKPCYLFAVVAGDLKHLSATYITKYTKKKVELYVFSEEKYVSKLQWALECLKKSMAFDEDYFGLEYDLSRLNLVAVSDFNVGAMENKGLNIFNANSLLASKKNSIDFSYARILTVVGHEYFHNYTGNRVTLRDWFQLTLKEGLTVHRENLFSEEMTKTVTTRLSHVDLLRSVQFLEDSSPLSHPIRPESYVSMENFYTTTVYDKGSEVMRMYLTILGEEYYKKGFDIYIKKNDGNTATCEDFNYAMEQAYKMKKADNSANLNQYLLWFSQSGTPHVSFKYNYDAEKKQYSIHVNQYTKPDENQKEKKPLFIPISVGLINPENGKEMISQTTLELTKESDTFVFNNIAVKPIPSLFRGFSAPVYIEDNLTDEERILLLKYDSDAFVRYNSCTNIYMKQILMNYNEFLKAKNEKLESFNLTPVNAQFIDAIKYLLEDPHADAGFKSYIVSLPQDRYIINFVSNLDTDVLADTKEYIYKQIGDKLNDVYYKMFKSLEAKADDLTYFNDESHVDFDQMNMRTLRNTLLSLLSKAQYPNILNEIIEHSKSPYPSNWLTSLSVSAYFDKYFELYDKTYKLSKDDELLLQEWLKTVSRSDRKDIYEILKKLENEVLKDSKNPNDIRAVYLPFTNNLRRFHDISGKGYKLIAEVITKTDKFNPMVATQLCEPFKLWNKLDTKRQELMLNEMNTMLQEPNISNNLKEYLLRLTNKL

Compound: CC(C)(C)CC(=O)NC(C(=O)NO)c1ccc(-c2cc(F)c(F)c(F)c2)cc1 (stereo not shown) [MMV1557817, N-(2-(hydroxyamino)−2-oxo-1-(3′,4′,5′-trifluoro-[1,1′-biphenyl]-4-yl)ethyl)-3,3-dimethylbutanamide]
- Ki (PfA-M1; Pf M1, Morrison equation, read-out: Ki^(app) ± SEM): 0.308 µM
- inhibition at 1.25 µM (PfA-M1; [4]): 83%
- inhibition at 10 µM (PfA-M1; [4]): 100%
- Ki (Pv-M1): 0.019 µM
- inhibition at 1.25 µM (Pv-M1; [4]): 96%
- inhibition at 10 µM (Pv-M1; [4]): 100%
- inhibition at 1.25 µM (ERAP1): 0%
- inhibition at 10 µM (ERAP1): 0%
- inhibition at 500 µM (ERAP1): 75%
- inhibition at 1000 µM (ERAP1): 98%
- inhibition at 1.25 µM (ERAP2): 7%
- inhibition at 10 µM (ERAP2): 0%
- inhibition at 500 µM (ERAP2): 99.1%
- inhibition at 1000 µM (ERAP2): 100%
- Ki (Pb-M1): 0.002 ± 0.0002 µM
- inhibition at 1.25 µM (Pb-M1; [4]): 94%
- inhibition at 10 µM (Pb-M1; [4]): 100%
- IC50 [1]: 0.099 µM
- IC50 [2]: 0.309 µM
- IC50 [3]: 1.47 µM

Compound: C[C@H]1[C@H](OC(=O)CCC(=O)O)O[C@@H]2O[C@@]3(C)CC[C@H]4[C@H](C)CC[C@@H]1[C@@]24OO3 [artesunate]
- inhibition at 1.25 µM (PfA-M1; [4]): 4.8%
- inhibition at 10 µM (PfA-M1; [4]): 11.9%
- inhibition at 500 µM (PfA-M1; [4]): 16.8%
- inhibition at 1000 µM (PfA-M1; [4]): 43.2%
- inhibition at 1.25 µM (Pv-M1; [4]): 2.1%
- inhibition at 10 µM (Pv-M1; [4]): 23.6%
- inhibition at 500 µM (Pv-M1; [4]): 74%
- inhibition at 1000 µM (Pv-M1; [4]): 68.2%
- inhibition at 1.25 µM (ERAP1): 0%
- inhibition at 10 µM (ERAP1): 0%
- inhibition at 500 µM (ERAP1): 0%
- inhibition at 1000 µM (ERAP1): 0%
- inhibition at 1.25 µM (ERAP2): 0%
- inhibition at 10 µM (ERAP2): 0%
- inhibition at 500 µM (ERAP2): 0%
- inhibition at 1000 µM (ERAP2): 0%
- inhibition at 10 µM (Pb-M1; Pb-M1, 10 µM compound, read-out: Inhibition of aminopeptidase activity): 12.8%
- inhibition at 1.25 µM (Pb-M1; [4]): 0%
- inhibition at 500 µM (Pb-M1; [4]): 81.3%
- inhibition at 1000 µM (Pb-M1; [4]): 78.2%
- IC50 [1]: 0.016 ± 0.005 µM
- IC50 [2]: 0.026 ± 0.002 µM
- IC50 [3]: 0.051 ± 0.023 µM
